# Test results reported in patent publication US8329717B2, “Pyrimidine derivatives and their use for controlling undesired plant growth” (Bayer Cropscience AG, priority 2008, dated 2012).
# Key:
# PHBPU = assay: Post-emergence herbicidal effect; format: in vivo; conditions: Dosage 320 g/ha, one-leaf stage, visual scoring after ca. 3 weeks vs untreated controls, 100% = plants have died
# Method: (§1) 2. Post-Emergence Herbicidal Effect and Crop Plant Compatibility Seeds of monocotyledonous or dicotyledonous weed plants or crop plants are planted in wood-fiber pots in sandy loam, covered with earth and grown in a greenhouse under good growth conditions. 2 to 3 weeks after sowing, the test plants are treated in the one-leaf stage. The compounds according to the invention, formulated in the form of wettable powders (WP) or as emulsion concentrates (EC), are then sprayed onto the green plant parts as aqueous suspension or emulsion at a water application rate of 600 to 800 l/ha (converted) with the addition of 0.2% of wetting agent. The dosage of the compounds according to the invention is given in grams per hectare. After ca. 3 weeks' standing time of the test plants in the greenhouse under optimum growth conditions, the effect of the preparations is scored visually in comparison with untreated controls (herbicidal effect in percent (%): 100% effect=plants have died, 0% effect=as control plants).
# Echinochloa crus-galli [1] = assay: Post-emergence herbicidal effect; format: in vivo; conditions: Dosage 320 g/ha, one-leaf stage, visual scoring after ca. 3 weeks vs untreated controls, 100% = plants have died
# Method: as §1, with “The following abbreviations are used in the tables below: [table] 2.” for “2.”
# Polygonum convolvulus [2] = assay: Post-emergence herbicidal effect; format: in vivo; conditions: Dosage 320 g/ha, one-leaf stage, visual scoring after ca. 3 weeks vs untreated controls, 100% = plants have died
# Method: as §1, with “The following abbreviations are used in the tables below: [table] 2.” for “2.”
# Veronica persica [3] = assay: Post-emergence herbicidal effect; format: in vivo; conditions: Dosage 320 g/ha, one-leaf stage, visual scoring after ca. 3 weeks vs untreated controls, 100% = plants have died
# Method: as §1, with “The following abbreviations are used in the tables below: [table] 2.” for “2.”
# Alopecurus myosuroides [4] = assay: Post-emergence herbicidal effect; format: in vivo; conditions: Dosage 320 g/ha, one-leaf stage, visual scoring after ca. 3 weeks vs untreated controls, 100% = plants have died
# Method: as §1, with “The following abbreviations are used in the tables below: [table] 2.” for “2.”
# Stellaria media [5] = assay: Post-emergence herbicidal effect; format: in vivo; conditions: Dosage 320 g/ha, one-leaf stage, visual scoring after ca. 3 weeks vs untreated controls, 100% = plants have died
# Method: as §1, with “The following abbreviations are used in the tables below: [table] 2.” for “2.”
# Lolium multiflorum [6] = assay: Post-emergence herbicidal effect; format: in vivo; conditions: Dosage 320 g/ha, one-leaf stage, visual scoring after ca. 3 weeks vs untreated controls, 100% = plants have died
# Method: as §1, with “The following abbreviations are used in the tables below: [table] 2.” for “2.”
# Echinochloa crus-galli [7] = assay: Pre-emergence herbicidal effect; format: in vivo; conditions: Dosage 320 g/ha, visual scoring after 3 weeks vs untreated controls, 100% = plants have died
# Description: (§2) 1. Pre-Emergence Herbicidal Effect and Crop Plant Compatibility Seeds of monocotyledonous or dicotyledonous weed plants or crop plants are planted in wood-fiber pots in sandy loam and covered with earth. The compounds according to the invention, formulated in the form of wettable powders (WP) or as emulsion concentrates (EC), are then applied as aqueous suspension or emulsion at a water application rate of 600 to 800 l/ha (converted) with the addition of 0.2% of wetting agent to the surface of the covering earth. The dosage of the compounds according to the invention is given in grams per hectare. Following the treatment, the pots are placed in a greenhouse and kept under good growth conditions for the test plants. The visual scoring of the damage on the test plants is carried out after an experiment time of 3 weeks in comparison with untreated controls (herbicidal effect in percent (%): 100% effect=plants have died, 0% effect=as control plants). The following abbreviations are used in the tables below: [table]
# Veronica persica [8] = assay: Pre-emergence herbicidal effect; format: in vivo; conditions: Dosage 320 g/ha, visual scoring after 3 weeks vs untreated controls, 100% = plants have died
# Description: as §2
# Setaria viridis [9] = assay: Pre-emergence herbicidal effect; format: in vivo; conditions: Dosage 320 g/ha, visual scoring after 3 weeks vs untreated controls, 100% = plants have died
# Description: as §2
# Alopecurus myosuroides [10] = assay: Pre-emergence herbicidal effect; format: in vivo; conditions: Dosage 320 g/ha, visual scoring after 3 weeks vs untreated controls, 100% = plants have died
# Description: as §2
# Matricaria inodora [11] = assay: Pre-emergence herbicidal effect; format: in vivo; conditions: Dosage 320 g/ha, visual scoring after 3 weeks vs untreated controls, 100% = plants have died
# Description: as §2
# Viola tricolor [12] = assay: Pre-emergence herbicidal effect; format: in vivo; conditions: Dosage 320 g/ha, visual scoring after 3 weeks vs untreated controls, 100% = plants have died
# Description: as §2
# Stellaria media [13] = assay: Pre-emergence herbicidal effect; format: in vivo; conditions: Dosage 320 g/ha, visual scoring after 3 weeks vs untreated controls, 100% = plants have died
# Description: as §2
# Lolium multiflorum [14] = assay: Pre-emergence herbicidal effect; format: in vivo; conditions: Dosage 320 g/ha, visual scoring after 3 weeks vs untreated controls, 100% = plants have died
# Description: as §2
# [15] = logp (HCOOH), chemicophysical data; conditions: HCOOH (formic acid)
# Amaranthus retroflexus [16] = assay: Post-emergence herbicidal effect; format: in vivo; conditions: Dosage 320 g/ha, one-leaf stage, visual scoring after ca. 3 weeks vs untreated controls, 100% = plants have died
# Method: as §1, with “The following abbreviations are used in the tables below: [table] 2.” for “2.”
# Polygonum convolvulus [17] = assay: Pre-emergence herbicidal effect; format: in vivo; conditions: Dosage 320 g/ha, visual scoring after 3 weeks vs untreated controls, 100% = plants have died
# Description: as §2
# Amaranthus retroflexus [18] = assay: Pre-emergence herbicidal effect; format: in vivo; conditions: Dosage 320 g/ha, visual scoring after 3 weeks vs untreated controls, 100% = plants have died
# Description: as §2
# Avena fatua = assay: Pre-emergence herbicidal effect; format: in vivo; conditions: Dosage 320 g/ha, visual scoring after 3 weeks vs untreated controls, 100% = plants have died
# Description: as §2
# Abutilon theophrasti = assay: Post-emergence herbicidal effect; format: in vivo; conditions: Dosage 320 g/ha, one-leaf stage, visual scoring after ca. 3 weeks vs untreated controls, 100% = plants have died
# Method: as §1, with “The following abbreviations are used in the tables below: [table] 2.” for “2.”
# Setaria viridis [19] = assay: Post-emergence herbicidal effect; format: in vivo; conditions: Dosage 320 g/ha, one-leaf stage, visual scoring after ca. 3 weeks vs untreated controls, 100% = plants have died
# Method: as §1, with “The following abbreviations are used in the tables below: [table] 2.” for “2.”
# Viola tricolor [20] = assay: Post-emergence herbicidal effect; format: in vivo; conditions: Dosage 320 g/ha, one-leaf stage, visual scoring after ca. 3 weeks vs untreated controls, 100% = plants have died
# Method: as §1, with “The following abbreviations are used in the tables below: [table] 2.” for “2.”
# Cyperus esculentus = assay: Pre-emergence herbicidal effect; format: in vivo; conditions: Dosage 320 g/ha, visual scoring after 3 weeks vs untreated controls, 100% = plants have died
# Description: as §2
# Matricaria inodora [21] = assay: Post-emergence herbicidal effect; format: in vivo; conditions: Dosage 320 g/ha, one-leaf stage, visual scoring after ca. 3 weeks vs untreated controls, 100% = plants have died
# Method: as §1, with “The following abbreviations are used in the tables below: [table] 2.” for “2.”
Compound,Post-emergence herbicidal effect PHBPU (PHBPU) [%],Post-emergence herbicidal effect ECHCG (Echinochloa crus-galli [1]) [%],Post-emergence herbicidal effect POLCO (Polygonum convolvulus [2]) [%],Post-emergence herbicidal effect VERPE (Veronica persica [3]) [%],Post-emergence herbicidal effect ALOMY (Alopecurus myosuroides [4]) [%],Post-emergence herbicidal effect STEME (Stellaria media [5]) [%],Post-emergence herbicidal effect LOLMU (Lolium multiflorum [6]) [%],Pre-emergence herbicidal effect ECHCG (Echinochloa crus-galli [7]) [%],Pre-emergence herbicidal effect VERPE (Veronica persica [8]) [%],Pre-emergence herbicidal effect SETVI (Setaria viridis [9]) [%],Pre-emergence herbicidal effect ALOMY (Alopecurus myosuroides [10]) [%],Pre-emergence herbicidal effect MATIN (Matricaria inodora [11]) [%],Pre-emergence herbicidal effect VIOTR (Viola tricolor [12]) [%],Pre-emergence herbicidal effect STEME (Stellaria media [13]) [%],Pre-emergence herbicidal effect LOLMU (Lolium multiflorum [14]) [%],chromatographic logP [15],Post-emergence herbicidal effect AMARE (Amaranthus retroflexus [16]) [%],Pre-emergence herbicidal effect POLCO (Polygonum convolvulus [17]) [%],Pre-emergence herbicidal effect AMARE (Amaranthus retroflexus [18]) [%],Pre-emergence herbicidal effect AVEFA (Avena fatua) [%],further results
"CCc1nc(N[C@@H]2CCc3ccccc32)nc(N)c1C#N [Example 1.62, 4-Amino-2-[(1R)-2,3-dihydro-1H-inden-1-ylamino]-6-ethylpyrimidine-5-carbonitrile]",80,90,80,80,80,80,90,100,100,90,80,90,100,100,80,2.18,–,–,–,–,–
Cc1ccc2c(c1)[C@H](Nc1nc(N)cc(Cl)n1)[C@@H](C)C2 [Example 1.75],90,85,80,85,–,87,–,100,100,95,100,100,100,100,95,–,90,100,100,90,–
CC[C@H]1Cc2ccc(C)cc2[C@@H]1Nc1nc(C)c(C#N)c(N)n1 [Example 1.96],90,85,85,85,80,95,90,100,100,100,100,100,100,100,100,–,85,100,100,80,Post-emergence herbicidal effect ABUTH (Abutilon theophrasti): 85%; Post-emergence herbicidal effect SETVI (Setaria viridis [19]): 85%; Post-emergence herbicidal effect VIOTR (Viola tricolor [20]): 85%
"Cc1ccc2c(c1)[C@H](Nc1ncc(C#C[Si](C)(C)C)c(N)n1)[C@@H](C)C2 [Example 1.98, N2-[(1R,2S)-2,6-Dimethyl-2,3-dihydro-1H-inden-1-yl]-5-[(trimethylsilyl)ethynyl]-pyrimidine-2,4-diamine]",–,–,–,–,–,–,–,–,100,80,–,80,100,100,–,2.28,–,–,80,–,Pre-emergence herbicidal effect CYPES (Cyperus esculentus): 100%
Cc1ccc2c(c1)[C@H](Nc1nc(C)c([N+](=O)[O-])c(N)n1)[C@@H](C)C2 [Example 1.120],100,100,80,90,–,85,–,100,100,100,100,100,100,100,90,–,90,100,100,80,Post-emergence herbicidal effect ABUTH (Abutilon theophrasti): 90%; Post-emergence herbicidal effect SETVI (Setaria viridis [19]): 85%; Post-emergence herbicidal effect MATIN (Matricaria inodora [21]): 80%; Post-emergence herbicidal effect VIOTR (Viola tricolor [20]): 90%
